{"source": "patent US7083961B1", "about": "(priority 2002, dated 2006)", "origin": "cited, not measured here", "molecular_target": "T. foetus IMPDH (Tritrichomonas foetus, UniProt P50097)", "sequence (P50097 whole entry)": "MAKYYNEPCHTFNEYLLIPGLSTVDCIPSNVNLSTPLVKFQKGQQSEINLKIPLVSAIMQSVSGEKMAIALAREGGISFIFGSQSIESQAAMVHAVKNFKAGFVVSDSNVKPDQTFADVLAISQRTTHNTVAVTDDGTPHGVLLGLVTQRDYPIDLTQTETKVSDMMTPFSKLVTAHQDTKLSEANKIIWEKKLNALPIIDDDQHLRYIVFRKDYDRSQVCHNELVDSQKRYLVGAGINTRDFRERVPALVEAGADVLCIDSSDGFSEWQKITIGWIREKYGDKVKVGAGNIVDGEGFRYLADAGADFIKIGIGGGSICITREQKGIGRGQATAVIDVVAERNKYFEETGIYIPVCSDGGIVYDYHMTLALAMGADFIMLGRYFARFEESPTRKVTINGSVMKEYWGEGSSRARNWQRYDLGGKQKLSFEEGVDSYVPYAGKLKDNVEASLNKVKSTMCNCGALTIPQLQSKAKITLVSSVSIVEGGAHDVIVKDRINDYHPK", "conditions": "T. foetus enzyme, without cofactor bound", "data": [{"smiles": "O=c1[nH]c(=O)c2ncn([C@@H]3O[C@H](COP(=O)(O)O)[C@@H](O)[C@H]3O)c2[nH]1", "note": "[XMP, xanthosine monophosphate]", "values": [{"measurement": "off-rate", "result": 17, "unit": "s⁻¹"}]}]}
